# PMC4448982, “LP-925219 maximizes urinary glucose excretion in mice by inhibiting both renal SGLT1 and SGLT2” (Pharmacology Research & Perspectives, 2015)
# Assays:
# renal SGLT1 and SGLT2 = experiment: Metabolic cage study, 24-h urinary glucose excretion; assay type: in vivo, mouse
# Protocol: Mice were individually housed in Nalgene Metabolic Cages for Mice (product MTB-0311), and 24-h urine collections were made to determine 24-h UGE, as described previously (Powell et al. [2013a]). Some mice received a single dose of either LP-925219 or vehicle by oral gavage at 8 am immediately prior to initiating collection of 24-h urine samples; in addition, some mice received two doses of either vehicle or 60 mg/kg LP-925219 by oral gavage, with the first dose given at 8 am and the second dose given at 6 pm, nearly midway through the collection of the 24-h urine sample.
# Figure 5 UGE values in mice treated with a single dose of LP-925219. After DKO, S2 KO, S1 KO, and WT littermate mice received, by a single oral gavage at 8 am, either vehicle (Veh) or LP-925219 at a dose of (A) 1 mg/kg; (B) 10 mg/kg; or (C) 60 mg/kg, the mice were placed in metabolic cages and their urine was collected over the next 24 h and analyzed for total glucose. N = 5–11 mice/group. UGE < DKO UGE: *P < 0.05, **P < 0.01, ***P < 0.001; LP-925219 UGE > Veh UGE for the same group, ^^^P < 0.001. UGE, urinary glucose excretion.
# Figure 6 UGE values in mice treated with two doses of 60 mg/kg LP-925219. DKO, S2 KO, S1 KO, and WT littermate mice received, by oral gavage at 8 am and then again at 6 pm, either vehicle (Veh) or LP-925219 at a dose of 60 mg/kg. The mice were placed in metabolic cages after the first gavage and their urine was collected over the next 24 h and analyzed for total glucose. N = 6–11 mice/group. UGE < DKO UGE, ***P < 0.001; LP-925219 UGE > Veh UGE for the same group, ^^^P < 0.001. UGE, urinary glucose excretion.
# rat SGLT2 = molecular target: T1, rat SGLT2 (Rattus norvegicus, UniProt P53792); experiment: 14C-AMG uptake assay, cells expressing rat SGLT2; assay type: cell-based; conditions: mean ± SD
# T1 construct: expressed in transfected cells; host or cells: HEK293 (per abstract)
# T1 sequence (P53792 1-670): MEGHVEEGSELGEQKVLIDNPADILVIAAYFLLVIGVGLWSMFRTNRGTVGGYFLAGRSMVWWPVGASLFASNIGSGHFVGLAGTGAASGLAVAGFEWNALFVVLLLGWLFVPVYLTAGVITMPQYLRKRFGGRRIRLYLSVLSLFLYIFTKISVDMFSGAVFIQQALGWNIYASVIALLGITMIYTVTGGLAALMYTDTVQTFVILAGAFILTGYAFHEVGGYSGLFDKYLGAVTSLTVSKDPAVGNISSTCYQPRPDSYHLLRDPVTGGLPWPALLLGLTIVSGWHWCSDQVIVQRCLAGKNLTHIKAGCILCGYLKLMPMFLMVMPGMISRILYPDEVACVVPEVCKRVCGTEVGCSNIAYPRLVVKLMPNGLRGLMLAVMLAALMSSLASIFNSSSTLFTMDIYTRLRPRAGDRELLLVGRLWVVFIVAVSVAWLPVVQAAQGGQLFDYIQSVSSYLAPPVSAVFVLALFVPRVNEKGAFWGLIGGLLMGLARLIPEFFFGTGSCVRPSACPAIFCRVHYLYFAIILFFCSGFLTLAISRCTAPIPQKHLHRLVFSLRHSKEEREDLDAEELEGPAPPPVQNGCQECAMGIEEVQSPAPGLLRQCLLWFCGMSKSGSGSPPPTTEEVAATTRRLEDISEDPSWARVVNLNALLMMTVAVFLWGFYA
# Text: Methods for generating cell lines expressing mouse, rat, and dog SGLT1 and SGLT2 are published (Powell et al. [2013b], [2014]). Full-length coding sequence of human SGLT1 (NP_000334) and human SGLT2 (NP_003032.1) with an HA-tag at the N-terminus were cloned into the mammalian expression vector pIRESpuro2 (Clontech, Mountain View, CA). HEK293 cells (ATCC, Manassas, VA) were transfected with the pIRESpuro2 vector containing human SGLT1 or SGLT2 and bulk stable cell lines were selected in the presence of 0.5 μg/mL of puromycin.
# Cell lines expressing SGLT1 or SGLT2 were plated into poly-D-lysine-coated 384-well plates, and culture overnight in cell growth medium. Cells were washed, and then incubated in uptake buffer ([…], […] KCl, […] CaCl2, […] MgCl2, […] HEPES/Tris, 1 mg/mL of bovine serum albumin, pH7.4) containing [^14C]α-methylglucopyranoside (^14C-AMG), a nonmetabolizable glucose analog specific for sodium-dependent glucose transporters (Wright and Turk [2004]). The inhibition of SGLT1 or SGLT2 was determined by measuring SGLT1/2-mediated ^14C-AMG uptake in the presence of increasing compound concentrations of LP-925219. […] Standard sigmoidal dose–response model curves were fitted, and the IC50 value was computed as the LP-925219 concentration that inhibited the ^14C-AMG uptake by 50% between baseline and maximum uptake.
compound,measurement,setting,value
COc1ccc(Cc2cc([C@@H]3O[C@H](SC)[C@@H](O)[C@H](O)[C@H]3O)ccc2Cl)cc1 [LP-925219],24-h UGE,"renal SGLT1 and SGLT2; DKO mice, single oral dose 1, 10 or 60 mg/kg, vs vehicle",not significantly increased
same,24-h UGE,"renal SGLT1 and SGLT2; DKO mice, two oral 60 mg/kg doses (8 am, 6 pm), vs vehicle",not significantly increased
same,24-h UGE,"renal SGLT1 and SGLT2; SGLT1 KO mice, single oral dose 1 mg/kg",almost maximal
same,24-h UGE,"renal SGLT1 and SGLT2; SGLT1 KO mice, single oral dose, all higher doses (10, 60 mg/kg)",maximal
same,24-h UGE,"renal SGLT1 and SGLT2; SGLT1 KO mice, two oral 60 mg/kg doses (8 am, 6 pm)",maximally increased
same,24-h UGE,"renal SGLT1 and SGLT2; WT mice, single oral dose 1 mg/kg, vs vehicle",did not show a significant response
same,24-h UGE,"renal SGLT1 and SGLT2; WT mice, single oral dose 60 mg/kg, maximal = vehicle-treated DKO",68 ± 15 % of maximal
same,24-h UGE,"renal SGLT1 and SGLT2; WT mice, two oral 60 mg/kg doses (8 am, 6 pm)",90 ± 17 % of maximal
same,IC50,rat SGLT2,0.3 ± 0.2 nM
